We go through 2 molecules from EP2638113B1, “THIOPHENE AZO DYES AND LAUNDRY CARE COMPOSITIONS CONTAINING THE SAME” (Milliken & Company, priority 2010, dated 2011).

The data set in a line: Aqueous partition value of a dye (water/1-octanol partitioning, absorbance at λmax). It counts as physicochemical. As to conditions: Aqueous Partition Value (APV) = (Af/Ai) × 100%, deionized water / 1-octanol, 10.0 mL each. The protocol: • I. Method for Determining the Aqueous Partition Value of a Dye Dissolve in deionized water to a final volume of 10.0 mL an amount of dye sufficient to provide a solution absorbance value between 0.25 and 1.0, said absorbance being determined at the dye λmax between 400 nm and 750 nm, using a cuvette with 1.0 cm path length. Measure the absorbance of the sample at the dye λmax in a UV/Vis spectrophotometer, then transfer the entire 10.0 mL solution to a 50.0 mL plastic centrifuge tube. Add 10.0 mL of 1-octanol, cap the tube, and mix vigorously for 30 seconds using a Vortex™ mixer. Leave the tube standing undisturbed until the layers cleanly phase separate. […] Analyze the solution as before, and quantify the absorbance loss at λmax as "% of Dye Remaining in Aqueous Layer" as detailed below: % of Dye Remaining in Aqueous Layer = Aqueous Partition Value (APV) = (Af/Ai) × 100% [formula] wherein Ai is the initial solution absorbance at λmax and Af is the final solution absorbance at λmax. • II. […] After such washing step separately rinse the swatches in tap water and air dry the swatches in the dark. • e.) After rinsing and drying each swatch, the hueing efficiency, DE*eff, of the dye is assessed by determining the L*, a*, and b* value measurements of each swatch using a Hunter LabScan XE reflectance spectrophotometer with D65 illumination, 10° observer and UV filter excluded. […]

On to `CCN(CCOCCOCCOCCOCC[N+](C)(C)CCCS(=O)(=O)[O-])c1ccc(/N=N/c2sc(C#N)c(C)c2C#N)c(C)c1` [Example 15], for which the “% Dye in Water Layer” value is given as 3%.

With `CCN(CCOCCOCCOCCOCCn1cc[n+](C)c1)c1ccc(/N=N/c2sc(C#N)c(C)c2C#N)c(C)c1` [Example 13], the “% Dye in Water Layer” value worked out at 20%.
